Reference: a compilation of properties of binary mixtures (doi:10.1007/s10953-023-01246-7)

Assay: xn = mol fraction of the nth substance listed
Conditions: 100 kPa

CCOS(=O)(=O)[O-].CC[n+]1ccn(C)c1 + OCCO
viscosity [mPa·s]
Conditions	x1 = 0.1003	x1 = 0.1982	x1 = 0.2999	x1 = 0.4002	x1 = 0.5005	x1 = 0.5992	x1 = 0.6994	x1 = 0.8001	x1 = 0.8993
293.15 K	–	17.96	–	25.17	32.09	40.31	54.7	70.3	99.9
298.15 K	14.75	15.08	17.32	21.18	26.88	33.49	44.9	56.9	78.4
303.15 K	12.28	12.75	14.69	17.95	22.71	–	–	46.47	62.8
308.15 K	10.4	–	–	15.42	19.35	23.73	31.11	38.47	51.2
313.15 K	8.88	–	10.94	13.31	16.65	20.23	26.27	32.2	42.22
318.15 K	7.67	–	9.49	–	14.46	17.49	22.38	–	–
323.15 K	–	7.16	8.38	10.19	12.56	15.18	19.32	23.28	29.87
328.15 K	5.8	6.26	7.45	9.03	11.07	13.32	16.79	20.18	25.55
333.15 K	–	–	6.62	8.07	–	11.79	14.74	17.49	22.02
338.15 K	4.53	4.97	5.94	7.19	8.77	–	13.02	15.39	19.13
343.15 K	4.03	4.47	5.33	6.46	–	–	11.55	–	16.8
